The source made the active and inactive calls.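 The calls were made as follows: active = compounds giving half or more protection of infected cells from virus-caused growth loss, again on retest; inactive = the rest.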
System: CEM cells HIV-1 protection, formazan growth assay
Assay: NCI AIDS Antiviral Assay
Conditions: for IC50: measured here: growth of uninfected CEM cells
Procedure, shortened: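 Human CEM cells, uninfected and HIV-1-infected, exposed to five drug concentrations; growth measured by soluble formazan assay and scored as percent protection from infection, with protecting compounds retested.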

SMILES	EC50 [µM]	IC50 [µM]	outcome
CC(=O)Oc1cccc2c1C(=O)CCCC2	> 200	> 200	
COc1ccc(/C=C(\C#N)c2ccccc2)cc1OC	> 70.8	> 70.8	
COC(=O)C(=O)C(C(=O)C(=O)Nc1cc(C)ccc1C)c1nc2ccccc2[nH]c1=O (configuration not stated)	> 589	275	
Cc1ccccc1Nc1nc(-c2ccccc2)nc(N)c1N=O	> 200	21.9	
O=Cc1c(O)c(C(=O)Nc2ccc3[nH]c(=O)[nH]c3c2)cc2ccccc12	> 38.9	> 38.9	
CCC1Oc2c(CC=C(C)C)c(OC(C)=O)c(C(OC(C)=O)C(C)CC)c3oc(=O)cc1c23 (configuration not stated)	> 200	95.5	
N#C/C(=C/NC(=S)N=Nc1c(O)[nH]c2ccccc12)C(N)=O	> 200	195	
O=C1C=C(N2CCOCC2)c2cc(N3CCOCC3)ncc2C1=O			inactive
NS(=O)(=O)c1ccc(Nc2c3ccc(Cl)cc3nc3ncccc23)cc1			inactive
Oc1ccc2ccccc2c1Br	> 200	162	
CC(=O)Nc1sccc1S(=O)(=O)c1ccc(Cl)cc1	> 200	> 200	
CC12CCCCC1=[N+]([O-])C(C)(C)N2O (configuration not stated)	> 200	> 200	
Nc1nc(N)c2ncn(C3C=CC(CO)CC3)c2n1 (configuration not stated)	> 200	> 200	
O=C(O)c1cc(O)c2c(c1)C(=O)c1cc(O)cc(O)c1C2=O			inactive
COc1cc([C@H]2CC(=O)C[C@@H](c3cc(OC)c(OC)c(OC)c3)C23C(=O)c2ccccc2C3=O)cc(OC)c1OC	> 200	> 200	
CCCCNc1ccc(/C=C2\C=Cc3ccccc32)cc1	> 10	> 10	
N=C(N)c1csc([C@@H]2O[C@H](CO)[C@@H](O)[C@H]2O)n1			inactive
CC(=O)NNc1nc(C)c(C(=O)NNC(=O)C(=O)Nc2ccc(C)c(C)c2)s1	> 170	31.6	
Clc1ccc(Nc2nnc(CNc3ccc(-c4nnc(Nc5ccc(Cl)cc5)s4)cc3)s2)cc1	> 200	13.2	
COC(=O)C1=C(C(=O)OC)C2(C3C(SC)=CC(C)(C)CC3S1)N(Cc1ccccc1)CCN2Cc1ccccc1 (configuration not stated)	> 9.12	> 9.12	
O=C(O)c1cc([N+](=O)[O-])c2c(c1)P(=O)(O)c1cc(C(=O)O)cc([N+](=O)[O-])c1O2	> 200	> 200	
CSC1(CC(=O)N(C)C)C(=O)Nc2ccccc21 (configuration not stated)	> 200	> 200	
Cn1ccnc1SC(F)(F)c1nc2ccccc2o1	> 200	148	

SMILES	EC50 [µM]	IC50 [µM]	outcome
N#C/C(=C/c1cccc2ccccc12)C(=O)c1ccccc1	> 13.2	> 13.2	
Cc1cc2c(cc1CO)N1Cc3cc(C)c(CO)cc3N(C2)C1			inactive
c1csc(-c2ccc(-c3ccc(-c4ccc(-c5cccs5)s4)s3)s2)c1	> 200	> 200	
CN(C)C(N)=NC#N	> 794	> 794	
COc1cc2[nH]c3c(c2cc1OC)CCN[C@]31CC[C@]2(CC3c4c(cc(OC)c(O)c42)CCN3C)C[C@H]1OC (some centres not stated)			inactive
O=c1c2ccccc2oc2ccccc12	> 26.3	> 26.3	
C/C(C=C(C#N)C#N)=C\c1cccc(F)c1	> 123	14.1	
O=C(c1ccc(O)cc1O)C1C(c2ccc(O)cc2)OC(c2ccc(O)cc2)C1C(=O)c1ccc(O)cc1O (configuration not stated)			inactive
O=C(O)CC1SC2(C(=O)N(Cc3ccccc3)c3ccccc32)N(c2ccccc2)C1=O (configuration not stated)	> 200	> 100	
O=C(NC(=S)NC(=O)c1cc(O)c(O)c(O)c1)c1cc(O)c(O)c(O)c1	> 200	4.27	
Cc1oc2c(c(=O)c1C)CN(Cc1ccccc1)CC2	> 331	275	
COC(=O)COc1ccc([As](=O)(O)O)cc1	> 200	> 200	
CC(C)COC(=O)CS(=O)(=O)O	> 200	> 200	
c1ccc(-c2nnc(-c3ccccc3)c3nonc23)cc1	> 95.5	> 95.5	
CN1c2ccccc2[C@@]23CCN4CC=CC5(CCC12CC5)C43 (some centres not stated)	> 178	7.41	
CC1(C)CCCOc2ccc(C(=O)O)cc21	> 200	> 200	
Cc1noc(C)c1CCCOC1COc2ccccc2OCCOCCOc2ccccc2OC1	> 100	> 100	
O=C1CCCc2ccc([N+](=O)[O-])c(O)c21			inactive
C=C=CP(=O)(c1ccccc1)c1ccccc1	> 151	15.5	
COc1cc(C[P+](c2ccccc2)(c2ccccc2)c2ccccc2)cc(OC)c1OC	> 479	33.1	
O=C(CP(=O)(O)O)NC(CC(=O)OCc1ccccc1)C(=O)OCc1ccccc1 (configuration not stated)	> 100	> 100	
CN(C)P(=O)(c1ccccc1)c1ccccc1	> 200	> 200	
